In patent publication US8192962B2, “Processes for detecting toxic substances” (Daikin Industries, Ltd., priority 2001, dated 2012):

System: Energy system protein genes
Experiment: DNA chip mRNA expression in yeast, energy system protein genes (Table 4)
Type: cell-based, Saccharomyces cerevisiae S288C
Procedure, shortened: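 In this screen, yeast in logarithmic growth are challenged for two hours with a toxic substance at a non-lethal inhibitory concentration. Their mRNA, converted to Cy3- or Cy5-labeled cDNA, hybridizes at 65° C. to a chip spanning every yeast gene, and expression is expressed as a ratio to untreated cells.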

Measured: The level of expressed mRNA in the presence of chemical substance/The level of expressed mRNA in the absence of chemical substance

Cl[C@H]1[C@H](Cl)[C@@H](Cl)[C@@H](Cl)[C@H](Cl)[C@H]1Cl [(7), γ-hexachlorocyclohexane]
3.6: yeast gene YDL174C
2.9: yeast gene YCL040W
0.5: yeast gene YDR529C, cells incubated two hours with the chemical substance | yeast gene YGL256W, cells incubated two hours with the chemical substance | yeast gene YKL141W, cells incubated two hours with the chemical substance | yeast gene YPL061W, cells incubated two hours with the chemical substance
3.7: yeast gene YGR008C | yeast gene YKR097W | yeast gene YPL088W
1.6: yeast gene YER178W | yeast gene YJR009C | yeast gene YPL031C, cells incubated two hours with the chemical substance
1.0: yeast gene YCR105W, cells incubated two hours with the chemical substance | yeast gene YDR298C, cells incubated two hours with the chemical substance | yeast gene YGL191W, cells incubated two hours with the chemical substance | yeast gene YGR087C, cells incubated two hours with the chemical substance | yeast gene YGR174C, cells incubated two hours with the chemical substance | yeast gene YJR121W, cells incubated two hours with the chemical substance | yeast gene YKR009C, cells incubated two hours with the chemical substance | yeast gene YLR038C, cells incubated two hours with the chemical substance | yeast gene YMR073C, cells incubated two hours with the chemical substance | yeast gene YMR118C | yeast gene YOR142W, cells incubated two hours with the chemical substance | yeast gene YOR388C, cells incubated two hours with the chemical substance
3.9: yeast gene YGR244C
6.5: yeast gene YGR043C
1.7: yeast gene YDL078C, cells incubated two hours with the chemical substance | yeast gene YDR231C | yeast gene YGR192C | yeast gene YJR155W | yeast gene YPL171C
0.3: yeast gene YJR048W | yeast gene YLL041C, cells incubated two hours with the chemical substance
1.8: yeast gene YDL107W, cells incubated two hours with the chemical substance | yeast gene YFL057C | yeast gene YLR258W, cells incubated two hours with the chemical substance | yeast gene YML129C, cells incubated two hours with the chemical substance
3.2: yeast gene YNL241C
0.6: yeast gene YDR178W, cells incubated two hours with the chemical substance | yeast gene YEL039C, cells incubated two hours with the chemical substance | yeast gene YGL187C, cells incubated two hours with the chemical substance | yeast gene YKL148C, cells incubated two hours with the chemical substance | yeast gene YLR304C, cells incubated two hours with the chemical substance
0.8: yeast gene YDL067C, cells incubated two hours with the chemical substance | yeast gene YGL205W, cells incubated two hours with the chemical substance | yeast gene YJL166W, cells incubated two hours with the chemical substance | yeast gene YLR284C, cells incubated two hours with the chemical substance | yeast gene YML120C, cells incubated two hours with the chemical substance
0.9: yeast gene YBL099W, cells incubated two hours with the chemical substance | yeast gene YBR001C, cells incubated two hours with the chemical substance | yeast gene YLR377C, cells incubated two hours with the chemical substance | yeast gene YMR205C, cells incubated two hours with the chemical substance | yeast gene YNL202W, cells incubated two hours with the chemical substance | yeast gene YOR178C, cells incubated two hours with the chemical substance | yeast gene YPR048W, cells incubated two hours with the chemical substance
1.3: yeast gene YDR079W, cells incubated two hours with the chemical substance | yeast gene YGL062W | yeast gene YGR062C, cells incubated two hours with the chemical substance, 25° C., YPD medium | yeast gene YLR044C, cells incubated two hours with the chemical substance | yeast gene YMR261C, cells incubated two hours with the chemical substance | yeast gene YPL262W, cells incubated two hours with the chemical substance | yeast gene YPR184W, cells incubated two hours with the chemical substance
2.1: yeast gene YFR053C | yeast gene YJL052W
1.9: yeast gene YHR179W | yeast gene YNL331C | yeast gene YOL086C, cells incubated two hours with the chemical substance
1.4: yeast gene YCR012W | yeast gene YIR031C, cells incubated two hours with the chemical substance | yeast gene YKR058W, cells incubated two hours with the chemical substance, 25° C., YPD medium | yeast gene YNL071W | yeast gene YOL165C | yeast gene YPL240C
5.9: yeast gene YDL021W
1.2: yeast gene YBR185C, cells incubated two hours with the chemical substance | yeast gene YCR046C, cells incubated two hours with the chemical substance | yeast gene YKL060C, cells incubated two hours with the chemical substance | yeast gene YLR345W | yeast gene YMR267W, cells incubated two hours with the chemical substance, 25° C., YPD medium | yeast gene YPL276W, cells incubated two hours with the chemical substance
0.7: yeast gene YEL024W, cells incubated two hours with the chemical substance | yeast gene YJL121C, cells incubated two hours with the chemical substance
1.5: yeast gene YBL058W, cells incubated two hours with the chemical substance | yeast gene YBR221C, cells incubated two hours with the chemical substance | yeast gene YDR001C | yeast gene YDR050C, cells incubated two hours with the chemical substance | yeast gene YGR254W | yeast gene YJL216C, cells incubated two hours with the chemical substance | yeast gene YKL016C, cells incubated two hours with the chemical substance
1.1: yeast gene YDL181W, cells incubated two hours with the chemical substance | yeast gene YDR377W, cells incubated two hours with the chemical substance | yeast gene YGL018C, cells incubated two hours with the chemical substance | yeast gene YIL160C | yeast gene YLR134W, cells incubated two hours with the chemical substance | yeast gene YLR295C, cells incubated two hours with the chemical substance, 25° C., YPD medium | yeast gene YLR354C, cells incubated two hours with the chemical substance | yeast gene YML087C | yeast gene YMR323W, cells incubated two hours with the chemical substance | yeast gene YPL275W, cells incubated two hours with the chemical substance
3.3: yeast gene YAL060W
